Test results from ChEMBL document CHEMBL4190377, “Design of Aminopeptidase N Inhibitors as Anti-cancer Agents” (J Med Chem, 2018).
Values after ≈ are worked out from the molar mass of the structure shown. Values belong to the compound of their own block, whether it stands above or below them.

Tests used:
Aminopeptidase N [1] = target: T1, Aminopeptidase N (Homo sapiens, UniProt P15144)
Description: Inhibition of APN (unknown origin)

Aminopeptidase N [2] = target: T2, Aminopeptidase N (Sus scrofa, UniProt P15145); experiment: Inhibition of pig APN
T2 sequence (P15145 whole entry): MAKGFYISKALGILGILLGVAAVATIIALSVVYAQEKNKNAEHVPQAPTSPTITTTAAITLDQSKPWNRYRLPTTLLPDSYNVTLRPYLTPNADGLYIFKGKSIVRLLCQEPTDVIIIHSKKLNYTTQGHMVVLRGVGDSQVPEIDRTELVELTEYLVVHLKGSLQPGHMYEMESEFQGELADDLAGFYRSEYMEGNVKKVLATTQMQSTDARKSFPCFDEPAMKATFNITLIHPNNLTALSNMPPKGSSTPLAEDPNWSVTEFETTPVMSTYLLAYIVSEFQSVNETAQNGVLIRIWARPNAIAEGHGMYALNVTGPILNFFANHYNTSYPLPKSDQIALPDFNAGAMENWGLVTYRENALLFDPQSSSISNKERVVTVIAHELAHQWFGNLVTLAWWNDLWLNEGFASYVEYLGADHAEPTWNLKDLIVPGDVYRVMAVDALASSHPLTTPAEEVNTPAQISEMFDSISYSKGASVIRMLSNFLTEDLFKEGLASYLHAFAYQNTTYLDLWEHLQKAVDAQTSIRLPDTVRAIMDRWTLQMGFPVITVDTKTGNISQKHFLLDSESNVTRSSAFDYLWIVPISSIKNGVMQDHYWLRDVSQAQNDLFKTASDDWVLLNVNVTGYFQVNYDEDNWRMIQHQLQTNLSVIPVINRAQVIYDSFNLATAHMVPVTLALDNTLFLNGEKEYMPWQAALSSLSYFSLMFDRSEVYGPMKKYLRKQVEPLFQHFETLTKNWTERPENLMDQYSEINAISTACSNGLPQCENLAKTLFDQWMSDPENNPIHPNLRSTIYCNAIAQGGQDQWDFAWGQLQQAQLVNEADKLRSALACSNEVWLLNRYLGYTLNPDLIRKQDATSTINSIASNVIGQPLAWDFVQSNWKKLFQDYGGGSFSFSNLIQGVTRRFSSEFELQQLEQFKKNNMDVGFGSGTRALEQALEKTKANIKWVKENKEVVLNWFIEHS

Leucine aminopeptidase = target: T3, Leucine aminopeptidase (Sus scrofa, UniProt Q29571); experiment: Competitive inhibition of LAP in porcine kidney microsomes
T3 sequence (Q29571 whole entry): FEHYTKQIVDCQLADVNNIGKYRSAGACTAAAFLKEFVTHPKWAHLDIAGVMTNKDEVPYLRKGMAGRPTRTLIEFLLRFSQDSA

Aminopeptidase N [3] = target: T2, Aminopeptidase N; experiment: Inhibition of APN in porcine kidney using Ala-p-NA as substrate
Glutamyl aminopeptidase [4] = target: T4, Glutamyl aminopeptidase (Homo sapiens, UniProt Q07075); experiment: Inhibition of APA (unknown origin) using GluNA as substrate
T4 sequence (Q07075 whole entry): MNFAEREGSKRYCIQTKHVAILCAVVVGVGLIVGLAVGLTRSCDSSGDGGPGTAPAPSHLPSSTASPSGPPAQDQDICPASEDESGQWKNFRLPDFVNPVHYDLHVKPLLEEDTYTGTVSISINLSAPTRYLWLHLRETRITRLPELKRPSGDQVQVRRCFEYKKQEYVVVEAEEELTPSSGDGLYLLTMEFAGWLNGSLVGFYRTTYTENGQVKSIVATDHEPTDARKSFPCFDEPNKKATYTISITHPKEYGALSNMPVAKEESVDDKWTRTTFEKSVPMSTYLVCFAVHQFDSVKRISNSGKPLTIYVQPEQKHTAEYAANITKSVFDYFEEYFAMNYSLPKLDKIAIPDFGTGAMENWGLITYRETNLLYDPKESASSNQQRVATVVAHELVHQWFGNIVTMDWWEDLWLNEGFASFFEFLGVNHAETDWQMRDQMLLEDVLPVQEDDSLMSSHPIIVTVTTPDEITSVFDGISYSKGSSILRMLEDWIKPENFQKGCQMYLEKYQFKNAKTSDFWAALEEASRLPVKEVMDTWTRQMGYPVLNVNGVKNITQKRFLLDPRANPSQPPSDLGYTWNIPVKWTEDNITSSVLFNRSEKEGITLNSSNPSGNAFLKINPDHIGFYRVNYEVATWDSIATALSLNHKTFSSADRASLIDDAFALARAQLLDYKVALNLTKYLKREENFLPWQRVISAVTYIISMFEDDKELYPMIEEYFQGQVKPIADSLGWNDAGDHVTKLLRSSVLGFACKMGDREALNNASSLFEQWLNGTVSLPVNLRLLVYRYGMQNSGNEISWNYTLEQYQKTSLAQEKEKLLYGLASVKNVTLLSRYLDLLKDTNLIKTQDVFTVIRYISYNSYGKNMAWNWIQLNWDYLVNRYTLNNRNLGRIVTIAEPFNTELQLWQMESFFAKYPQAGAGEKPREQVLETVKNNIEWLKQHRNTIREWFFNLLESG

Glutamyl aminopeptidase [5] = target: T4, Glutamyl aminopeptidase; experiment: Inhibition of APA (unknown origin) using GlubetaNA as substrate after 30 mins
Aminopeptidase N [6] = target: T2, Aminopeptidase N; experiment: Inhibition of APN in porcine kidney using Ala-betaNA as substrate preincubated for 10 mins followed by substrate addition measured after 30 mins by fluorescence spectrofluorometric method
[7] = Solubility in PBS; type: physicochemical
Aminopeptidase N [8] = target: T1, Aminopeptidase N; experiment: Competitive inhibition of aminopeptidase-M (unknown origin)
Aminopeptidase N [9] = target: T2, Aminopeptidase N; experiment: Inhibition of APN in porcine kidney microsomes using L-leucine-p-nitroanilide as substrate preincubated for 30 mins followed by substrate addition measured after 15 mins by UV-visible spectrophotometric method
Aminopeptidase N [10] = target: T2, Aminopeptidase N; experiment: Inhibition of APN in porcine kidney microsomes using L-leucine-p-nitroanilide as substrate preincubated for 30 mins followed by substrate addition by UV-visible spectrophotometric method
HL-60 [11] = experiment: Antiproliferative activity against human HL60 cells after 72 hrs by MTT assay; type: functional, cell-based; conditions: HL-60, 72 h
[12] = Antiproliferative activity against human ES2 cells over-expressing APN after 48 hrs by MTT assay; type: functional, cell-based; conditions: ES-2, 48 h
A549 = experiment: Antiproliferative activity against human A549 cells over-expressing APN after 48 hrs by MTT assay; type: functional, cell-based; conditions: A549, 48 h
MDA-MB-231 = experiment: Antiproliferative activity against human MDA-MB-231 cells after 48 hrs by MTT assay; type: functional, cell-based; conditions: MDA-MB-231, 48 h
[13] = target: 72 kDa type IV collagenase (Homo sapiens, UniProt P08253); experiment: Inhibition of recombinant human MMP2 expressed in Escherichia coli preincubated for 30 mins followed by succinylated gelatin substrate addition measured after 60 mins
Sequence of 72 kDa type IV collagenase (P08253 whole entry): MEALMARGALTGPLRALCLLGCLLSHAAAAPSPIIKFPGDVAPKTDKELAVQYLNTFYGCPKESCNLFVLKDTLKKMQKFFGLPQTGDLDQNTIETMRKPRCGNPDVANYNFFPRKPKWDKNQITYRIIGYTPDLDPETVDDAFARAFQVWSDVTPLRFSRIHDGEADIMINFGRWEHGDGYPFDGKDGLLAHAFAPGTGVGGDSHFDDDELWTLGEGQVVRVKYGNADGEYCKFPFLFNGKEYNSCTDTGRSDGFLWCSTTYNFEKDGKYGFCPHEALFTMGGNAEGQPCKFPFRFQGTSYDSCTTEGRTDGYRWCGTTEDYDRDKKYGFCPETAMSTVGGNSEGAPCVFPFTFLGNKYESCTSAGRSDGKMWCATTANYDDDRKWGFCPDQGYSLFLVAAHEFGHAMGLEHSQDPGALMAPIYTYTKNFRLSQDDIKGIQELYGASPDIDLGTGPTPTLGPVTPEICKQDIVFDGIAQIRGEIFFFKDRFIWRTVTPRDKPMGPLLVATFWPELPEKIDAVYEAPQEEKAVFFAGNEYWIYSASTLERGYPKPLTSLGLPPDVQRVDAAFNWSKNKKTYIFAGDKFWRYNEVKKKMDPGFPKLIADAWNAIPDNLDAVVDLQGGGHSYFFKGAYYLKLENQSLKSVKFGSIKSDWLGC

HL-60 [14] = experiment: Antiproliferative activity against human HL60 cells after 48 hrs by MTT assay; type: functional, cell-based; conditions: HL-60, 48 h
SK-OV-3 = experiment: Antiproliferative activity against human SKOV3 cells after 48 hrs by MTT assay; type: functional, cell-based; conditions: SK-OV-3, 48 h
[15] = target: T5, Leukotriene A-4 hydrolase (Homo sapiens, UniProt P09960); experiment: Inhibition of full-length recombinant C-terminal FLAG-tagged human leukotriene A4 hydrolase expressed in baculovirus-infected insect cells using Arg-AMC as substrate after 1 hr by fluorescence assay
T5 sequence (P09960 whole entry): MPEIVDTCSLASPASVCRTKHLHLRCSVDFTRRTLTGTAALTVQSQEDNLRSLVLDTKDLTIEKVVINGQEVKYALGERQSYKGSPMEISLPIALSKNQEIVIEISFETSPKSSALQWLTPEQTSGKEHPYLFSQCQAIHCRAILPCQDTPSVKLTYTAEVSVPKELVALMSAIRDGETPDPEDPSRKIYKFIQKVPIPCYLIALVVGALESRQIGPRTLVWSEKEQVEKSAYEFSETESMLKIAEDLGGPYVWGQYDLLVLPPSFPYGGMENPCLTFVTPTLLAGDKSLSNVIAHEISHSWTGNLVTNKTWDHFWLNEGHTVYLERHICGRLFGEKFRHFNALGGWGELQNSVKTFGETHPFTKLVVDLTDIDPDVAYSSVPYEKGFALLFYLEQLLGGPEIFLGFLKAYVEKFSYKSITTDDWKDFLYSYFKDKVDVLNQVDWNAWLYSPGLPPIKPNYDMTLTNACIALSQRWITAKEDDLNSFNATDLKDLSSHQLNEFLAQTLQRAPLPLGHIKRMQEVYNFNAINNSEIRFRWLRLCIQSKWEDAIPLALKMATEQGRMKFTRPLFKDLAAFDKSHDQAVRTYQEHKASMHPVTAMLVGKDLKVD

Cytosol aminopeptidase = target: T6, Cytosol aminopeptidase (Sus scrofa, UniProt P28839); experiment: Inhibition of porcine kidney leucine aminopeptidase using LGG as substrate after 90 mins
T6 sequence (P28839 whole entry): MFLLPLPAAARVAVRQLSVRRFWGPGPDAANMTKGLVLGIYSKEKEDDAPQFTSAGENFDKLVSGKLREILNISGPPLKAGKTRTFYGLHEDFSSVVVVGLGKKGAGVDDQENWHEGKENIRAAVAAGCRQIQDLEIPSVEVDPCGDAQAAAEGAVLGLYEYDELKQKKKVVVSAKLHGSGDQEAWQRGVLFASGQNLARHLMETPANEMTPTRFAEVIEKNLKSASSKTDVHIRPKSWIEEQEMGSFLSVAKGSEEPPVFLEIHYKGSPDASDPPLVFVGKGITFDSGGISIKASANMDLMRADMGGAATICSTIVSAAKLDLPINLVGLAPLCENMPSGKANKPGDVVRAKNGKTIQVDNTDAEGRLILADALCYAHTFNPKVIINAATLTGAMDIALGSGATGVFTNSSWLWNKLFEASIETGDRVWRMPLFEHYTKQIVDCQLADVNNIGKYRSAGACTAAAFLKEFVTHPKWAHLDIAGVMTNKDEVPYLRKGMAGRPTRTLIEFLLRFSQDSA

[16] = target: T7, Cytosol aminopeptidase (Sus scrofa) (UniProt P28839); experiment: Potency index, ratio of bestatin IC50 to compound IC50 for porcine kidney leucine aminopeptidase
T7 sequence (whole entry): T6 sequence (P28839 whole entry)

[17] = Selectivity ratio of IC50 for APN (unknown origin) to IC50 for porcine kidney leucine aminopeptidase
Aminopeptidase B = target: T8, Aminopeptidase B (Rattus norvegicus, UniProt O09175); experiment: Inhibition of APB in rat testis using ArgbetaNA as substrate
T8 sequence (O09175 whole entry): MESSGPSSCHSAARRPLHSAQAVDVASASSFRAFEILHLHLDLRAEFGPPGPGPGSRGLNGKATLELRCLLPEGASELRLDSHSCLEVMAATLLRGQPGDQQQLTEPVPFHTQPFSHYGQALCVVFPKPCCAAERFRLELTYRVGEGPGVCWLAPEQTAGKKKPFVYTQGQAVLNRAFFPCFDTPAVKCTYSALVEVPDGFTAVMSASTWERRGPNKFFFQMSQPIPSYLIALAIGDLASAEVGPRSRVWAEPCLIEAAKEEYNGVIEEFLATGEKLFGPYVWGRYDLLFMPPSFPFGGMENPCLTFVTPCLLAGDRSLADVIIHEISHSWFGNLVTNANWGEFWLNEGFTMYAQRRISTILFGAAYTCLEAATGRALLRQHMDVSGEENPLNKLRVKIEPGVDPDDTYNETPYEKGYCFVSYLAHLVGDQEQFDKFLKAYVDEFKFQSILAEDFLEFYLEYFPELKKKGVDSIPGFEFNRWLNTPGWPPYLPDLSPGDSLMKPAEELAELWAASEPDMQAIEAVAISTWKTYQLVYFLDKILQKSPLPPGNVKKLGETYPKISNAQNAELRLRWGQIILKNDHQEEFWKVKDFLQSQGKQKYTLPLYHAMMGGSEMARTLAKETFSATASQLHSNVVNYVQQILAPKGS

Mus musculus = experiment: Increase in plasma vasopressin release in mouse at 100 ug administered as single dose by RIA; type: functional

T1 sequence (P15144 whole entry): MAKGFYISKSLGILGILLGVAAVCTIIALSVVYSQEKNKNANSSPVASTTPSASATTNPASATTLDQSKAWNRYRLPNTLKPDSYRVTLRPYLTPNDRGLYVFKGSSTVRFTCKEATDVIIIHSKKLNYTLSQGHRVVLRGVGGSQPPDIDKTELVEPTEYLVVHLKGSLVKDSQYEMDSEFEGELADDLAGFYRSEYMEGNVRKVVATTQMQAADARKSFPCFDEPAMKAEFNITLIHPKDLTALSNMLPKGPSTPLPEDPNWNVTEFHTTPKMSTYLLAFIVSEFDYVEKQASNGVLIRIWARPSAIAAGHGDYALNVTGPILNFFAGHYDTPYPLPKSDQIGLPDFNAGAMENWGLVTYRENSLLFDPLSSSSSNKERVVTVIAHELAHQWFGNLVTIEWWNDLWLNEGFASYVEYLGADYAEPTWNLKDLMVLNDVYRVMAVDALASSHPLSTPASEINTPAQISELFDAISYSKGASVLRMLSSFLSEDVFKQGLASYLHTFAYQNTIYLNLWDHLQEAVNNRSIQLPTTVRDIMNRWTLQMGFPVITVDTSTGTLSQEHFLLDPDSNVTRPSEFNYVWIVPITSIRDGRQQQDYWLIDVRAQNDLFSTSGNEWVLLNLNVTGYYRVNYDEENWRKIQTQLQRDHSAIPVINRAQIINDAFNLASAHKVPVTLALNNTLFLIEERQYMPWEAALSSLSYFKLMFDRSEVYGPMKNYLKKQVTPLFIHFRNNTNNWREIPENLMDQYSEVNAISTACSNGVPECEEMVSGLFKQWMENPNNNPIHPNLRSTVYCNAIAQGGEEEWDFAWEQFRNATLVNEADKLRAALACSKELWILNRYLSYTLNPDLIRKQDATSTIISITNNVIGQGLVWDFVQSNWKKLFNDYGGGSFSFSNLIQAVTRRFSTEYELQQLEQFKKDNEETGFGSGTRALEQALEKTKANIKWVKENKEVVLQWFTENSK

Structure (SMILES): NC1COc2ccccc2CC1=O (stereo not drawn)
Ki (Aminopeptidase N [2]): 1000 nM

Structure (SMILES): C(=C1/c2ccccc2-c2c1ccc1ccccc21)/c1cc2c3c(cccc3c1)-c1ccccc1-2
Ki (Aminopeptidase N [2]): 1630 nM

Structure (SMILES): C[C@@](Cc1ccccc1)(NC(=O)[C@H](Cc1ccccc1)CP(=O)(O)C(N)Cc1ccccc1)C(=O)O (stereo partly drawn)
Ki (Aminopeptidase N [3]): 1.5 nM
Ki (Glutamyl aminopeptidase [4]): 40000 nM

Structure (SMILES): CC(C)C[C@H](NC(=O)[C@@H](O)[C@H](N)Cc1ccccc1)C(=O)O [UBENIMEX]
solubility [7]: 35.7 mM (≈ 11 mg/mL)

Structure (SMILES): CCCCC[C@H](CC(=O)NO)C(=O)N[C@H](C(=O)N1CCC[C@H]1CO)C(C)C [ACTINONIN]
IC50 (Aminopeptidase N [8]): 400 nM
Ki (Aminopeptidase N [8]): 170 nM

Structure (SMILES): Cc1ccc(C(=O)NN/C(=N/S(=O)(=O)c2ccc(-n3nc(C(F)(F)F)cc3-c3cccs3)cc2)N2CCCC2)cc1
Ki (Aminopeptidase N [2]): 1950 nM

Structure (SMILES): Cc1ccc(NC(=O)CN2C(=O)CC[C@H](NC(=O)C(N)Cc3ccccc3)C2=O)c(C)c1 (stereo partly drawn)
IC50 (Aminopeptidase N [10]): 5000 nM
IC50 (HL-60 [11]): 1970 nM

Structure (SMILES): CC(N)P(=O)(O)C[C@@H](Cc1ccccc1)C(=O)N[C@@](C)(Cc1ccccc1)C(=O)O (stereo partly drawn)
Ki (Aminopeptidase N [3]): 0.6 nM
Ki (Glutamyl aminopeptidase [4]): 130 nM

Structure (SMILES): CC(C)C[C@@H](NC(=O)[C@H](Cc1ccccc1)NC(=O)[C@@H](O)CN)C(=O)O
IC50 (Aminopeptidase N [9]): 12200 nM
IC50 [13]: 203000 nM
IC50 (HL-60 [14]): 170 nM
IC50 (SK-OV-3): 380 nM

Structure (SMILES): CC(C)C[C@H](C(=O)N[C@H](C(=O)OC1CCCC1)c1ccccc1)[C@H](O)C(=O)NO
IC50 (Cytosol aminopeptidase): 100 nM
Ratio IC50 [16]: 300
Ratio IC50 [17]: 2
IC50 (Aminopeptidase N [1]): 220 nM

Structure (SMILES): N#Cc1cc(Cc2ccc3c(ccc4ccccc43)c2C#N)cc2c1ccc1ccccc12
Ki (Aminopeptidase N [2]): 2900 nM

Now from value to compound, other results behind:

IC50 (Aminopeptidase N [1]): 25 nM
Structure (SMILES): CC(C)CC(N)B1OC(C)(C)C(C)(C)O1 (stereo not drawn)

IC50 (Aminopeptidase N [1]): 20 nM
Structure (SMILES): CC1(C)OB(C(N)Cc2ccccc2)OC1(C)C (stereo not drawn)

Ki (Leucine aminopeptidase): 22 nM
Structure (SMILES): CC(C)C[C@@H](N)CS

IC50 (Aminopeptidase N [1]): 40 nM
Structure (SMILES): CC(N)B1OC(C)(C)C(C)(C)O1 (stereo not drawn)

Ki (Glutamyl aminopeptidase [5]): 13 nM
Ki (Aminopeptidase N [6]): 120 nM
Structure (SMILES): CC[C@H](C)[C@H](NC(=O)C(S)C(N)CCC(=O)O)C(=O)N[C@@H](CC(=O)O)C(=O)O (stereo partly drawn)

IC50 (Aminopeptidase N [9]): 2510 nM
Structure (SMILES): CC(C)C[C@@H](NC(=O)[C@H](Cc1ccc(O)cc1)NC(=O)[C@@H](O)CN)C(=O)O

solubility [7]: 85.2 mM (≈ 41.3 mg/mL)
IC50 (Aminopeptidase N [10]): 7200 nM
IC50 (A549): 36000 nM
IC50 (MDA-MB-231): 260000 nM
Structure (SMILES): CC(C)CC(NC(=O)C(O)C(N)Cc1ccccc1)C(=O)NC(CO)C(=O)NCc1ccccc1 (stereo not drawn)
IC50 [12]: 12600 nM

IC50 [15]: 8 nM
IC50 (Cytosol aminopeptidase): 30 nM
Structure (SMILES): CC(C)C[C@H](C(=O)N[C@H](C(=O)O)c1ccccc1)[C@H](O)C(=O)NO

Ki (Glutamyl aminopeptidase [5]): 17200 nM
Ki (Aminopeptidase B): 1000 nM
Structure (SMILES): CSCCC(N)CS (stereo not drawn)
Activity (Mus musculus): >220%
